Source: patent US20200331950A1, “SGLTS INHIBITOR AND APPLICATION THEREOF” (SHANDONG DANHONG PHARMACEUTICAL CO., LTD., priority 2018, published 2020)
Marks after values point to notes of the source that are not given here.

What was measured:
db/db mice [1] = test: Oral glucose tolerance test (OGTT) at week 8 in diabetic db/db mice; format: in vivo; settings: 5 mg/kg weeks 1-4, 10 mg/kg weeks 5-8, once daily, fasted 6 hours, glucose 2 g/kg, mean±S.E.M.
Procedure: (§1) Experimental Example 4: Study on the In Vivo Pharmacodynamics in Diabetic Db/Db Mice
(§2) During the experiment, the animals were administrated with the corresponding vehicles or drugs according to the group with an administration time of 16:00 and an administration period of 8 weeks.
(§3) The dose was 5 mg/kg from week 1 to week 4; and the dose was 10 mg/kg from week 5 to week 8.
At the end of the experiment (i.e. the last 3 days of administration), the animals fasted for 6 hours, then were given a single administration of glucose aqueous solution at a dose of 2 g/kg. The time of the glucose administration was recorded as 0 min. Blood glucose levels of the animals were detected at 0 min before the glucose administration, and 15 min, 30 min, 90 min and 120 min after the glucose administration, respectively. The glucose tolerance curve was drawn according to the data of blood glucose levels vs time, and the area under the curve (AUC) was calculated. The administration was given at 16:00.
(§4) All of the data were entered into an Excel document and expressed in the form of mean±S.E.M. The differences between groups were compared using graphpad Prism 6 software and one-way analysis of variance (ANOVA). P value of less than 0.05 is considered a significant difference.

SD rats = test: Oral glucose tolerance test (OGTT) in rats, second time; format: in vivo; settings: second study, male SD rats, 10 mg/kg single intragastric administration
Procedure: Study on the In Vivo Efficacy of Oral Glucose Tolerance Test (OGTT) in Rats for the Second Time:
The experimental animals were allowed to adapt to the environment in the animal room for one week after they arrived.
The animals fasted in the metabolic cage for 18 hours, then were given drugs or vehicle (2 ml/kg) according to the above table, and subsequently were immediately given 50% glucose solution (2 g/kg, 4 ml/kg).
2 hours after the administration of glucose solution, feed intake was restored. Blood samples were taken at 0 min, 15 min, 30 min, 45 min, 60 min and 120 min respectively, and urine samples were collected at 0-24 h to test blood glucose, urine glucose (mg/200 g) and urine volume respectively.
All values are represented as averages. Statistical analysis was performed using Graphpad Prism 6 one-way analysis of variance and Tukey's multiple comparison test. P value of less than 0.05 is considered statistically significant.

[2] = In vivo pharmacokinetics in Beagle dogs; settings: male Beagle dogs
Text: Study on the In Vivo Pharmacokinetics in Beagle Dogs
The purpose of the experiment: Male beagle (Beagle) dogs were used as test animals and were given a single administration to determine the plasma concentration of the compound and evaluate the pharmacokinetic behavior.
Experimental method: Six male Beagle dogs were divided into 2 groups, with 3 dogs in an intravenous injection group and 3 dogs in an oral administration group. In the intravenous injection group, the test compound was mixed with an appropriate amount of vehicle (20% polyethylene glycol-400 (PEG400)/10% polyethylene glycol-15 hydroxy stearate (available from solutol)/70% water), then vortexed and sonicated to prepare 1 mg/mL clear solution, which was filtered by microporous membrane. In the oral administration group, 20% polyethylene glycol-400 (PEG400)/10% polyethylene glycol-15 hydroxy stearate (available from solutol)/70% water was used as a vehicle and mixed with the test compound, then vortexed and sonicated to prepare 1 mg/mL clear solution. The dogs were given intravenous administration at a dose of 1 mg/kg or oral administration at a dose of 2 mg/kg. Whole blood was collected at a certain period of time to prepare the plasma. The drug concentration of the plasma was analyzed by LC-MS/MS method, and the pharmacokinetic parameters were calculated using Phoenix WinNonlin software (Pharsight Company, USA).

db/db mice [3] = test: Random blood glucose in diabetic db/db mice; format: in vivo; settings: mean±S.E.M.
Procedure: as §1
The animals were kept in an animal breeding room with strictly controlled environmental conditions after they arrived. The animal breeding room was maintained at a temperature of 20-24° C. and a humidity of 40-70%. The temperature and humidity in the feeding room were monitored in real time by a hygrothermograph, and the temperature and humidity were recorded twice daily (one in the morning and the other in the afternoon). The lighting of the animal feeding room was controlled by an on-off electronic timing system, with lights for 12 hours and dark for 12 hours daily (turned on at 7:00 a.m. and turned off at 19:00 p.m). The mice were raised in separate cages and were given free access to feed (reproductive feed 17053113 for rats and mice, available from Beijing Keao Xieli Feed Co., Ltd.) and water during the experiment.
as §2, §3
Random and fasting blood glucose levels were measured once a week.
The random blood glucose level was measured at 10:00 a.m.
as §4

[4] = Week 1, 5 mg/kg intragastric once daily
[5] = Week 2, 5 mg/kg intragastric once daily
[6] = Week 3, 5 mg/kg intragastric once daily
[7] = Week 4, 5 mg/kg intragastric once daily
[8] = Week 5, 10 mg/kg intragastric once daily (5 mg/kg weeks 1-4)
[9] = Week 6, 10 mg/kg intragastric once daily (5 mg/kg weeks 1-4)
[10] = Week 7, 10 mg/kg intragastric once daily (5 mg/kg weeks 1-4)
[11] = Week 8, 10 mg/kg intragastric once daily (5 mg/kg weeks 1-4)

Compound: CCc1ccc([C@@H]2O[C@H](SC)[C@@H](O)[C@H](O)[C@H]2O)cc1Cc1ccc(C2=CCC(F)(F)CC2)cc1 [WXD010]
- OGTT blood glucose level AUC0-2 hr (db/db mice [1]): 2120 ± 99.2 mmol/L/min
- OGTT blood glucose level AUC0-2 hr (SD rats; glucose 2 g/kg): 720 mmol/L/min
- Urine glucose level (SD rats; urine 0-24 h): 2118.7**** mg/200 g, BW
- Urine volume (SD rats; urine 0-24 h): 20.0**** mL/200 g, BW
- clearance ([2]; dog, plasma, intravenous 1 mg/kg or oral 2 mg/kg, read-out: Cl (clearance rate)): 0.414 L/h/kg
- half-life ([2]; dog, plasma, intravenous 1 mg/kg or oral 2 mg/kg, read-out: T1/2 (half-life) (converted)): 2.4 h
- Vd ([2]; dog, plasma, intravenous 1 mg/kg or oral 2 mg/kg, read-out: Vdss (distribution volume)): 1.49 L/kg
- bioavailability ([2]; dog, plasma, intravenous 1 mg/kg, oral 2 mg/kg, read-out: F % (oral bioavailability)): 82%
- Cmax ([2]; dog, single administration, intravenous 1 mg/kg or oral 2 mg/kg, plasma): 1.29 µM
- Oral DNAUC (AUCPO/Dose) ([2]; oral 2 mg/kg): 4051 nM · h/mpk
- Random blood glucose (db/db mice [3]; [4]): 16.7 ± 1.00
- Random blood glucose (db/db mice [3]; [5]): 13.5 ± 2.46
- Random blood glucose (db/db mice [3]; [6]): 14.1 ± 0.97
- Random blood glucose (db/db mice [3]; [7]): 15.4 ± 1.34
- Random blood glucose (db/db mice [3]; [8]): 13.2 ± 1.09
- Random blood glucose (db/db mice [3]; [9]): 10.6 ± 1.48
- Random blood glucose (db/db mice [3]; [10]): 9.8 ± 0.82
- Random blood glucose (db/db mice [3]; [11]): 9.2 ± 0.68

Compound: CS[C@H]1O[C@@H](c2ccc(C)c(Cc3ccc(C4=CCC(F)(F)CC4)cc3)c2)[C@H](O)[C@@H](O)[C@@H]1O [WXD003]
- OGTT blood glucose level AUC0-2 hr (db/db mice [1]): 2810 ± 155 mmol/L/min
- Random blood glucose (db/db mice [3]; [4]): 14.3 ± 2.28
- Random blood glucose (db/db mice [3]; [5]): 15.7 ± 0.88
- Random blood glucose (db/db mice [3]; [6]): 13.6 ± 1.40
- Random blood glucose (db/db mice [3]; [7]): 13.3 ± 0.81
- Random blood glucose (db/db mice [3]; [8]): 14.1 ± 1.28
- Random blood glucose (db/db mice [3]; [9]): 10.1 ± 1.26
- Random blood glucose (db/db mice [3]; [10]): 12.5 ± 1.23
- Random blood glucose (db/db mice [3]; [11]): 14.4 ± 1.77
